Earlier results as cited in article PMC6311693 (ACS Central Science, 2018).

Conditions: 8 mg/kg; musculoskeletal system, increases in creatine phosphokinase

In the case of `CCCCCCCCCC(=O)N[C@@H](Cc1c[nH]c2ccccc12)C(=O)N[C@H](CC(N)=O)C(=O)N[C@@H](CC(=O)O)C(=O)N[C@@H]1C(=O)NCC(=O)N[C@@H](CCCN)C(=O)N[C@@H](CC(=O)O)C(=O)N[C@H](C)C(=O)N[C@@H](CC(=O)O)C(=O)NCC(=O)N[C@H](CO)C(=O)N[C@@H]([C@H](C)CC(=O)O)C(=O)N[C@@H](CC(=O)c2ccccc2N)C(=O)O[C@@H]1C` [daptomycin], the “adverse effects in phase 1 clinical trials” value is given as “unacceptable adverse effects”.
